target: E3 ubiquitin-protein ligase CBL-B (Homo sapiens, UniProt Q13191); experiment: Binding affinity to Cbl-b (unknown origin) assessed as inhibition constant incubated for 60 mins by TR-FRET assay
Sequence (Q13191 whole entry): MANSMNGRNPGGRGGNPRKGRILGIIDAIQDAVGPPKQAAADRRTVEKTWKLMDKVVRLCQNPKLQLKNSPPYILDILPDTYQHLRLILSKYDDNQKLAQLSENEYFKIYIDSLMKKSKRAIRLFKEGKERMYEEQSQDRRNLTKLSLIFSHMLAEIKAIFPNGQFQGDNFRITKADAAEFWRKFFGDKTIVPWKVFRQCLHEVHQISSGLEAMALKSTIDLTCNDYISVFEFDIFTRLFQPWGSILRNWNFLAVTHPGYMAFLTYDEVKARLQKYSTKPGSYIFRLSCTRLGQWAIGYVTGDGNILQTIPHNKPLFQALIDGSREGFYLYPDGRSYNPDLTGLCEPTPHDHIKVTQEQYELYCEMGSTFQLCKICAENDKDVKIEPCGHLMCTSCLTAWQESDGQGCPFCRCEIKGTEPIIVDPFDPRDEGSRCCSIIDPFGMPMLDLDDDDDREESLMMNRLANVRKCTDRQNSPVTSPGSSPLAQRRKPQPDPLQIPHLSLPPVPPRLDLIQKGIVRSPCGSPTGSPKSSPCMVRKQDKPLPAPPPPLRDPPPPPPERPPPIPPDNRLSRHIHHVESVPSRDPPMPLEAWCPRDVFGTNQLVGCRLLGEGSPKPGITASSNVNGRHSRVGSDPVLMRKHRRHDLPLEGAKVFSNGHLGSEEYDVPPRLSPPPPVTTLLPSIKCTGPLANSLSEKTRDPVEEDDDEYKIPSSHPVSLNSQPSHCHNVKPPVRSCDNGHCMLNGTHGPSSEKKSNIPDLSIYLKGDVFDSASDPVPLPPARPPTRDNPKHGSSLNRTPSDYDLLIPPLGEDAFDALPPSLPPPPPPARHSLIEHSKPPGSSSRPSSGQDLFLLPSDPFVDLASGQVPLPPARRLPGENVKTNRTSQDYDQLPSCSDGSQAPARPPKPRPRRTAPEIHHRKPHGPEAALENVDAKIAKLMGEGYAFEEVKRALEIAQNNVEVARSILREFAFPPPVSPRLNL

Structure (SMILES) | Ki
Cc1cn(-c2cccc(C3(Cc4nncn4C)COC3)c2)c(=O)c2[nH]c(CN3CCC[C@H](C)C3)cc12 | 2.36 nM
C[C@H]1CCCN(Cc2cc3c(C(F)(F)F)cn(-c4cccc([C@]5(c6nncn6C)C[C@H](OC(F)(F)F)C5)c4)c(=O)c3[nH]2)C1 | 1.54 nM
CCN(CC)Cc1cc2c(C(F)(F)F)cn(-c3cccc([C@]4(c5nncn5C)C[C@@H](C)C4)c3)c(=O)c2[nH]1 | 0.97 nM
C[C@H]1CCCN(Cc2cc3c(C(F)(F)F)cn(-c4cccc(C5(Cc6nncn6C)COC5)c4)c(=O)c3[nH]2)C1 | 1.98 nM
C[C@H]1CCCN(Cc2cc3c(C(F)(F)F)cn(-c4cccc([C@]5(c6nncn6C)C[C@@H](OC(F)(F)F)C5)c4)c(=O)c3[nH]2)C1 | 1.34 nM
Cn1cnnc1[C@]1(c2cccc(-n3cc(C(F)(F)F)c4cc(CN5CCC[C@@H]6C[C@@H]65)[nH]c4c3=O)c2)C[C@H](C)C1 | 1.81 nM
CO[C@H]1C[C@](c2cccc(-n3cc(C(F)(F)F)c4cc(CNC5(C)CCC5)[nH]c4c3=O)c2)(c2nncn2C)C1 | 2.34 nM
CO[C@H]1C[C@@](c2cccc(-n3cc(C(F)(F)F)c4cc(CN5CC6CC6C5)[nH]c4c3=O)c2)(c2nncn2C)C1 (some centres not stated) | 3.01 nM
C[C@H]1CCCN(Cc2cc3c(C(F)(F)F)cn(-c4cccc([C@H](c5nncn5C)C5CCC5)c4)c(=O)c3[nH]2)C1 | 0.83 nM
CCN(Cc1cc2c(C(F)(F)F)cn(-c3cccc(C4(c5nncn5C)CCC4)c3)c(=O)c2[nH]1)CC(C)C | 2.87 nM
Cn1cnnc1[C@]1(c2cccc(-n3cc(C(F)(F)F)c4cc(CN5CC6CCC(C6)C5)[nH]c4c3=O)c2)C[C@H](C)C1 | 1.74 nM
C[C@H]1CCCN(Cc2cc3c(C(F)(F)F)cn(-c4cccc(C5(Cc6nncn6C)CC(F)(F)C5)c4)c(=O)c3[nH]2)C1 | 0.74 nM
C[C@H]1CCCN(Cc2cc3c(Br)cn(-c4cccc(C5(Cc6nncn6C)COC5)c4)c(=O)c3[nH]2)C1 | 2.79 nM
C[C@H]1CCCN(Cc2cc3c(C4CC4)cn(-c4cccc(C5(c6nncn6C)CC6(CC6)C5)c4)c(=O)c3[nH]2)C1 | 1.58 nM
C[C@H]1CCCN(Cc2cc3c(C4CC4)cn(-c4cccc(C5(Cc6nncn6C)CC(F)(F)C5)c4)c(=O)c3[nH]2)C1 | 1.68 nM
CO[C@H]1C[C@@](c2cccc(-n3cc(C(F)(F)F)c4cc(CNC5(C)CCC5)[nH]c4c3=O)c2)(c2nncn2C)C1 | 1.4 nM
CO[C@H]1C[C@](c2cccc(-n3cc(C(F)(F)F)c4cc(CN5CC6CC6C5)[nH]c4c3=O)c2)(c2nncn2C)C1 (some centres not stated) | 5.45 nM
C[C@H]1CCCN(Cc2cc3c(C4CC4)cn(-c4cccc([C@H](c5nncn5C)C5CCC5)c4)c(=O)c3[nH]2)C1 | 1.4 nM
C[C@H]1CCCN(Cc2cc3c(C4CC4)cn(-c4cccc([C@@H](c5nncn5C)C5CCC5)c4)c(=O)c3[nH]2)C1 | 38.2 nM
C[C@H]1CCCN(Cc2cc3c(S(C)(=O)=O)cn(-c4cccc(C5(Cc6nncn6C)COC5)c4)c(=O)c3[nH]2)C1 | 14.2 nM
C[C@H]1CCCN(Cc2cc3ccn(-c4cccc(C5(Cc6nncn6C)COC5)c4)c(=O)c3[nH]2)C1 | 18 nM
C[C@H]1CCCN(Cc2cc3c(C(F)(F)F)cn(-c4cccc(-c5ccccc5-c5nncn5C)c4)c(=O)c3[nH]2)C1 | 7.04 nM
CO[C@H]1C[C@](c2cccc(-n3cc(C(F)(F)F)c4cc(CN5CC6CCC(C6)C5)[nH]c4c3=O)c2)(c2nncn2C)C1 | 5.43 nM
C[C@H]1CCCN(Cc2cc3c(C(F)(F)F)cn(-c4cccc([C@@H](c5nncn5C)C5CCC5)c4)c(=O)c3[nH]2)C1 | 3.67 nM
CCN(Cc1cc2c(C(F)(F)F)cn(-c3cccc([C@]4(c5nncn5C)C[C@@H](OC)C4)c3)c(=O)c2[nH]1)CC(C)C | 3.88 nM
C[C@H]1CCCN(Cc2cc3c(C4CC4)cn(-c4cccc(C5(Cc6nncn6C)COC5)c4)c(=O)c3[nH]2)C1 | 1.43 nM
CO[C@H]1C[C@@](c2cccc(-n3cc(C(F)(F)F)c4cc(CN5CC6CCC(C6)C5)[nH]c4c3=O)c2)(c2nncn2C)C1 | 0.82 nM
CCN(Cc1cc2c(C(F)(F)F)cn(-c3cccc([C@]4(c5nncn5C)C[C@@H](C)C4)c3)c(=O)c2[nH]1)CC(C)C | 1.57 nM
C[C@H]1CCCN(Cc2cc3c(C4CC4)cn(-c4cccc(C5(C(F)c6nncn6C)CC(F)(F)C5)c4)c(=O)c3[nH]2)C1 (some centres not stated) | 2.34 nM

More lines, now with the values ahead:

Ki | Structure (SMILES)
4.19 nM | Cn1cnnc1C1(c2cccc(-n3cc(C(F)(F)F)c4cc(CN5CCC[C@@H]6C[C@@H]65)[nH]c4c3=O)c2)CCC1
1.13 nM | Cn1cnnc1C1(c2cccc(-n3cc(C(F)(F)F)c4cc(CNC5(C)CCC5)[nH]c4c3=O)c2)CCC1
2.89 nM | C/C=C1\C[C@@](c2cccc(-n3cc(C(F)(F)F)c4cc(CN5CCC[C@H](C)C5)[nH]c4c3=O)c2)(c2nncn2C)C1 (some centres not stated)
2.58 nM | CCN(CC)Cc1cc2c(C(F)(F)F)cn(-c3cccc(C4(c5nncn5C)CCC4)c3)c(=O)c2[nH]1
0.8 nM | C[C@H]1CCCN(Cc2cc3c(C(F)(F)F)cn(-c4cccc(C5(c6nncn6C)CC6(CC6)C5)c4)c(=O)c3[nH]2)C1
1.82 nM | Cn1cnnc1C1(c2cccc(-n3cc(C(F)(F)F)c4cc(CN5CCCC6(CC6)C5)[nH]c4c3=O)c2)CCC1
9.3 nM | CO[C@H]1C[C@](c2cccc(-n3cc(C(F)(F)F)c4cc(CN5CCCC6(CC6)C5)[nH]c4c3=O)c2)(c2nncn2C)C1
1.22 nM | CC[C@H]1C[C@](c2cccc(-n3cc(C(F)(F)F)c4cc(CN5CCC[C@H](C)C5)[nH]c4c3=O)c2)(c2nncn2C)C1
1.16 nM | Cn1cnnc1[C@]1(c2cccc(-n3cc(C(F)(F)F)c4cc(CN5CCC[C@H]6C[C@H]65)[nH]c4c3=O)c2)C[C@H](C)C1
0.86 nM | Cn1cnnc1[C@]1(c2cccc(-n3cc(C(F)(F)F)c4cc(CN5CC6CC6C5)[nH]c4c3=O)c2)C[C@H](C)C1 (some centres not stated)
1.14 nM | CC[C@H]1C[C@@](c2cccc(-n3cc(C(F)(F)F)c4cc(CN5CCC[C@H](C)C5)[nH]c4c3=O)c2)(c2nncn2C)C1
1.41 nM | C[C@H]1CCCN(Cc2cc3c(C(F)(F)F)cn(-c4cccc([C@]5(c6nncn6C)C[C@H](F)C5)c4)c(=O)c3[nH]2)C1
0.86 nM | Cn1cnnc1[C@]1(c2cccc(-n3cc(C(F)(F)F)c4cc(CNC5(C)CCC5)[nH]c4c3=O)c2)C[C@H](C)C1
1.02 nM | C[C@H]1CCCN(Cc2cc3c(C(F)(F)F)cn(-c4cccc(C5(c6nncn6C)CCC5)c4)c(=O)c3[nH]2)C1
1.25 nM | C[C@H]1CCCN(Cc2cc3c(C(F)(F)F)cn(-c4cccc([C@]5(c6nncn6C)C[C@@H](F)C5)c4)c(=O)c3[nH]2)C1
1.18 nM | C[C@H]1CCCN(Cc2cc3c(C(F)(F)F)cn(-c4cccc(C5(c6nncn6C)CC(F)(F)C5)c4)c(=O)c3[nH]2)C1
2.29 nM | CO[C@H]1C[C@@](c2cccc(-n3cc(C(F)(F)F)c4cc(CN5CCCC6(CC6)C5)[nH]c4c3=O)c2)(c2nncn2C)C1
2.34 nM | Cn1cnnc1C1(c2cccc(-n3cc(C(F)(F)F)c4cc(CN5CC6CC6C5)[nH]c4c3=O)c2)CCC1 (configuration not stated)
1.68 nM | CO[C@H]1C[C@](c2cccc(-n3cc(C(F)(F)F)c4cc(CN5CCC[C@H](C)C5)[nH]c4c3=O)c2)(c2nncn2C)C1
2 nM | Cn1cnnc1C1(c2cccc(-n3cc(C(F)(F)F)c4cc(CN5CCC[C@H]6C[C@H]65)[nH]c4c3=O)c2)CCC1
1.39 nM | CO[C@H]1C[C@@](c2cccc(-n3cc(C(F)(F)F)c4cc(CN5CCC[C@H](C)C5)[nH]c4c3=O)c2)(c2nncn2C)C1
5.29 nM | C[C@H]1CCCN(Cc2cc3c(C(F)(F)F)cn(-c4cccc(C5(c6nncn6C)COC5)c4)c(=O)c3[nH]2)C1
1.32 nM | Cn1cnnc1[C@]1(c2cccc(-n3cc(C(F)(F)F)c4cc(CN5CCCC6(CC6)C5)[nH]c4c3=O)c2)C[C@H](C)C1

— ChEMBL document CHEMBL6177960, “Rational design, optimization, and biological evaluation of novel pyrrolo-pyridone derivatives as potent and orally active Cbl-b inhibitors” (Eur J Med Chem, 2025)
